Test results as given in patent US10105357B2, “Indication of antibiotic drugs for preparation of cancer inhibition pharmaceutical composition” (LAUNX BIOMEDICAL CO., LTD., priority 2014, dated 2018).
Read-outs that look alike come from different tables or passages of the source.

Experiments:
Format in all cases: cell-based, human
U-2OS = assay: Cell viability analysis, osteosarcoma U-2OS; conditions: U2OS
[1] = system: BCC (basal cell carcinoma); assay: Cell viability analysis, skin cancer BCC
[2] = system: C-33A (Cervical carcinoma); assay: Cell viability analysis, cervical cancer C-33A
BxPC-3 = assay: Cell viability analysis, pancreatic cancer BxPC-3
[3] = system: LoVo (Colorectal Adenocarcinoma); assay: Cell viability analysis, colon cancer LoVo; conditions: LoVo; for viability at 10 µM: Homo sapiens, 72 h
[4] = system: SAS (Tongue squamous cell carcinoma); assay: Cell viability analysis, tongue cancer SAS
T24 = assay: Cell viability analysis, bladder cancer T24
[5] = system: MDA-MB-231 (Mammary Gland, Adenocarcinoma); assay: Cell viability analysis, breast cancer MDA-MB-231
cancer cell lines = assay: Cell viability analysis (WST-1) on cancer cell lines; conditions: drug 10 μM, 72 hours, WST-1; Table 3
[6] = system: 786-O (Renal adenocarcinoma); assay: Cell viability analysis, renal cancer 786-O
AsPC-1 = assay: Cell viability analysis, pancreatic cancer AsPC-1
NIH: OVCAR-3 = assay: Cell viability analysis, ovarian cancer NIH: OVCAR-3
[7] = system: Hep3B (hepatocellular carcinoma); assay: Cell viability analysis, hepatic cancer Hep3B; conditions: Hep3B
TOV-21G = assay: Cell viability analysis, ovarian cancer TOV-21G; conditions: TOV-21G; repeated experiment
[8] = system: A549 (Lung Adenocarcinoma); assay: Cell viability analysis, lung cancer A549; conditions: A549; repeated experiment
[9] = system: HI650 (Lung Adenocarcinoma); assay: Cell viability analysis, lung cancer HI650; conditions: H1650; repeated experiment
[10] = system: MCF7 (Mammary Gland, Adenocarcinoma); assay: Cell viability analysis, breast cancer MCF7; conditions: MCF-7; repeated experiment
[11] = system: HeLa (Cervix Adenocarcinoma); assay: Cell viability analysis, cervical cancer HeLa; conditions: HeLa; repeated experiment
[12] = system: MKN-45 (Gastric Adenocarcinoma); assay: Cell viability analysis, gastric cancer MKN-45; conditions: MKN-45; repeated experiment
[13] = system: A375 (Amelanotic Melanoma); assay: Cell viability analysis, skin cancer A375; conditions: A375; repeated experiment

CC(C)c1nc(CN(C)C(=O)N[C@H](C(=O)N[C@@H](Cc2ccccc2)C[C@H](O)[C@H](Cc2ccccc2)NC(=O)OCc2cncs2)C(C)C)cs1 [Ritonavir]
viability at 10 µM (U-2OS; Homo sapiens, 72 h, read-out: The results of antibiotic drug inhibiting cancer cell lines (cell viability analysis), U2OS): 87.1% | viability at 10 µM ([1]; Homo sapiens, 72 h, read-out: The results of antibiotic drug inhibiting cancer cell lines (cell viability analysis), BCC): 86.4% | viability at 10 µM ([2]; Homo sapiens, C-33-A, 72 h, read-out: The results of antibiotic drug inhibiting cancer cell lines (cell viability analysis), C-33A): 111% | viability at 10 µM (BxPC-3; Homo sapiens, BXPC-3, 72 h, read-out: The results of antibiotic drug inhibiting cancer cell lines (cell viability analysis), BxPC-3): 89.6% | viability at 10 µM ([3]; read-out: The results of antibiotic drug inhibiting cancer cell lines (cell viability analysis), LoVo, repeated experiment): 90.2% | viability at 10 µM ([3]; read-out: cell viability (survival rate), LoVo, drug 10 μM, 72 hours, WST-1, OD450 nm): 82.3% | viability at 10 µM ([4]; Homo sapiens, 72 h, read-out: The results of antibiotic drug inhibiting cancer cell lines (cell viability analysis), SAS): 73.2% | viability at 10 µM (T24; Homo sapiens, T-24, 72 h, read-out: The results of antibiotic drug inhibiting cancer cell lines (cell viability analysis), T24): 97.3% | viability at 10 µM ([5]; Homo sapiens, MDA-MB-231, 72 h, read-out: The results of antibiotic drug inhibiting cancer cell lines (cell viability analysis), MDA-MB231): 102% | inhibition effect on different cancer cell lines (cancer cell lines): significant inhibition effect | viability at 10 µM ([6]; Homo sapiens, 786-0, 72 h, read-out: The results of antibiotic drug inhibiting cancer cell lines (cell viability analysis), 786-O): 102% | viability at 10 µM (AsPC-1; Homo sapiens, ASPC1, 72 h, read-out: The results of antibiotic drug inhibiting cancer cell lines (cell viability analysis), AsPC-1): 88.6% | viability at 10 µM (NIH: OVCAR-3; Homo sapiens, OVCAR-3, 72 h, read-out: The results of antibiotic drug inhibiting cancer cell lines (cell viability analysis), NIH-OVCAR-3): 92.2% | viability at 10 µM ([7]; Homo sapiens, 72 h, read-out: The results of antibiotic drug inhibiting cancer cell lines (cell viability analysis), Hep3B): 102%

Cc1onc(-c2ccccc2Cl)c1C(=O)N[C@@H]1C(=O)N2[C@@H]1SC(C)(C)[C@@H]2C(=O)[O-].[Na+] [Cloxacillin sodium (Cloxacap)]
The results of antibiotic drug inhibiting cancer cell lines (cell viability analysis), U2OS (U-2OS; repeated experiment): 69.87 | The results of antibiotic drug inhibiting cancer cell lines (cell viability analysis), BCC ([1]; BCC, repeated experiment): 116.6 | The results of antibiotic drug inhibiting cancer cell lines (cell viability analysis), C-33A ([2]; C-33A, repeated experiment): 104.6 | The results of antibiotic drug inhibiting cancer cell lines (cell viability analysis), TOV-21G (TOV-21G): 105.9 | The results of antibiotic drug inhibiting cancer cell lines (cell viability analysis), BxPC-3 (BxPC-3; BxPC-3, repeated experiment): 69.13 | The results of antibiotic drug inhibiting cancer cell lines (cell viability analysis), LoVo ([3]; repeated experiment): 98.38 | The results of antibiotic drug inhibiting cancer cell lines (cell viability analysis), SAS ([4]; SAS, repeated experiment): 70.4 | The results of antibiotic drug inhibiting cancer cell lines (cell viability analysis), T24 (T24; T24, repeated experiment): 100.9 | The results of antibiotic drug inhibiting cancer cell lines (cell viability analysis), A549 [8]: 98.33 | The results of antibiotic drug inhibiting cancer cell lines (cell viability analysis), MDA-MB231 ([5]; MDA-MB231, repeated experiment): 101.6 | The results of antibiotic drug inhibiting cancer cell lines (cell viability analysis), H1650 [9]: 86.43 | The results of antibiotic drug inhibiting cancer cell lines (cell viability analysis), MCF-7 [10]: 103.7 | The results of antibiotic drug inhibiting cancer cell lines (cell viability analysis), HeLa [11]: 120.1 | The results of antibiotic drug inhibiting cancer cell lines (cell viability analysis), 786-O ([6]; 786-O, repeated experiment): 106.1 | The results of antibiotic drug inhibiting cancer cell lines (cell viability analysis), AsPC-1 (AsPC-1; AsPC-1, repeated experiment): 80 | The results of antibiotic drug inhibiting cancer cell lines (cell viability analysis), MKN-45 [12]: 111.3 | The results of antibiotic drug inhibiting cancer cell lines (cell viability analysis), NIH-OVCAR-3 (NIH: OVCAR-3; NIH-OVCAR-3, repeated experiment): 106.9 | The results of antibiotic drug inhibiting cancer cell lines (cell viability analysis), A375 [13]: 110.7 | The results of antibiotic drug inhibiting cancer cell lines (cell viability analysis), Hep3B ([7]; repeated experiment): 118.4
